Data from the supplement of paper PMC10307832.

Columns and labels:
Assay in all cases: relative viability (nuclei count vs DMSO), 5 days (fraction); higher = more cells survive
Carboplatin + Tozasertib = compound: C1CC(C1)(C(=O)O)C(=O)O.[NH2-].[NH2-].[Pt+2] [Carboplatin] + Cc1cc(Nc2cc(N3CCN(C)CC3)nc(Sc3ccc(NC(=O)C4CC4)cc3)n2)n[nH]1 [Tozasertib] (partner 0.1 µM)
In short: (§1)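 One day after seeding in 1536-well plates, lung cancer cell lines were dosed by pin tool. Dosing was either single-drug or a fixed anchor-drug dose plus five library-drug doses (not always all listed) in √10 steps. After 5 days, nuclei were stained in one fix-and-stain step and counted on 4× images, and relative viability is the nuclei count of treated wells over that of vehicle wells, given as the median of duplicate plates.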

MLN4924 + AZD7762 = compound: NS(=O)(=O)OC[C@@H]1C[C@@H](n2ccc3c(N[C@H]4CCc5ccccc54)ncnc32)C[C@@H]1O [MLN4924] + NC(=O)Nc1cc(-c2cccc(F)c2)sc1C(=O)N[C@H]1CCCNC1 [AZD7762] (partner 0.2 µM)
In short: as §1

GSK126 + Tozasertib = compound: CC[C@H](C)N1C=C(C2=C(C=C(C=C21)C3=CN=C(C=C3)N4CCNCC4)C(=O)NCC5=C(C=C(NC5=O)C)C)C [GSK126] + Cc1cc(Nc2cc(N3CCN(C)CC3)nc(Sc3ccc(NC(=O)C4CC4)cc3)n2)n[nH]1 [Tozasertib] (partner 0.1 µM)
In short: as §1

GSK126 + Luminespib = compound: CC[C@H](C)N1C=C(C2=C(C=C(C=C21)C3=CN=C(C=C3)N4CCNCC4)C(=O)NCC5=C(C=C(NC5=O)C)C)C [GSK126] + CCNC(=O)c1noc(-c2cc(C(C)C)c(O)cc2O)c1-c1ccc(CN2CCOCC2)cc1 [Luminespib] (partner 0.01 µM)
In short: as §1

Cell Line	relative viability (Carboplatin + Tozasertib; first compound 0.08 µM)	relative viability (Carboplatin + Tozasertib; first compound 0.253 µM)	relative viability (Carboplatin + Tozasertib; first compound 0.8 µM)	relative viability (Carboplatin + Tozasertib; first compound 8 µM)	relative viability (MLN4924 + AZD7762; first compound 0.04 µM)	relative viability (MLN4924 + AZD7762; first compound 0.1265 µM)	relative viability (MLN4924 + AZD7762; first compound 0.4 µM)	relative viability (MLN4924 + AZD7762; first compound 1.265 µM)	relative viability (MLN4924 + AZD7762; first compound 4 µM)	relative viability (GSK126 + Tozasertib; first compound 0.08 µM)	relative viability (GSK126 + Tozasertib; first compound 0.8 µM)	relative viability (GSK126 + Tozasertib; first compound 2.53 µM)	relative viability (GSK126 + Tozasertib; first compound 8 µM)	relative viability (GSK126 + Luminespib; first compound 0.08 µM)	relative viability (GSK126 + Luminespib; first compound 0.253 µM)	relative viability (GSK126 + Luminespib; first compound 0.8 µM)	relative viability (GSK126 + Luminespib; first compound 2.53 µM)	relative viability (GSK126 + Luminespib; first compound 8 µM)	relative viability (Carboplatin + Tozasertib; first compound 2.53 µM)	relative viability (GSK126 + Tozasertib; first compound 0.253 µM)
NCI-H1648	0.708	0.421	0.319	0.456	0.777	0.727	0.526	0.33	0.223	0.386	0.478	0.518	0.321	–	–	–	–	–	–	–
NCI-H1563	–	–	–	–	–	–	–	–	–	–	–	–	–	0.546	0.491	0.535	0.514	0.505	–	–
NCI-H2228	0.276	0.252	0.246	0.209	–	–	–	–	–	0.254	0.273	0.172	0.15	0.173	0.12	0.116	0.118	0.205	0.225	0.225
NCI-H661	0.371	0.336	0.33	0.348	–	–	–	–	–	0.355	0.344	0.343	0.332	0.908	0.884	0.905	0.873	0.944	0.301	0.336
NCI-H2009	0.848	0.694	0.76	0.45	–	–	–	–	–	0.798	0.639	0.615	0.464	1.1	1.01	0.968	1.06	1.09	0.613	0.705
COR-L 105	0.37	0.337	0.348	0.345	–	–	–	–	–	0.355	0.402	0.312	0.264	1.01	0.74	0.78	0.734	0.839	0.359	0.31
SW 1573	0.2	0.191	0.19	0.207	–	–	–	–	–	0.222	0.159	0.176	0.198	0.424	0.374	0.196	0.43	0.16	0.173	0.211
HCC-78	0.413	0.335	0.431	0.465	0.665	0.754	0.981	0.265	0.251	0.527	0.401	0.386	0.405	–	–	–	–	–	0.483	0.54
SK-MES-1	0.812	0.938	0.925	0.843	–	–	–	–	–	0.852	0.937	0.813	0.81	0.856	0.76	0.823	0.866	0.908	0.922	0.988
NCI-H1623	0.445	0.446	0.484	0.402	–	–	–	–	–	0.453	0.419	0.416	0.353	0.617	0.425	0.502	0.512	0.42	0.449	0.487
NCI-H1792	–	–	–	–	0.914	0.866	1.21	0.413	0.242	–	–	–	–	0.386	0.401	0.443	0.483	0.355	–	–
